Test results: patent US20090163586A1, “Bis-(Sulfonylamino) Derivatives in Therapy 205” (AstraZeneca AB, priority 2007, published 2009)

Molecular target: T1, human mPGES-1 (Homo sapiens, UniProt O14684)
T1 sequence (O14684 1-152): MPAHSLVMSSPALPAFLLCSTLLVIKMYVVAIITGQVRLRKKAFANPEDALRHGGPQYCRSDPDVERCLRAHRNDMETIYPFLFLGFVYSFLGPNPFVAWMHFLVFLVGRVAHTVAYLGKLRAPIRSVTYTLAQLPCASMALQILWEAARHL
Assay: Microsomal prostaglandin E synthase biochemical assay
Conditions: microsome preparation containing human mPGES-1; PGH2 10.8 μM, GSH 2.5 mM, pH 6.8; PGE2 by HTRF; average of at least n=2
Summary of the method: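 Human mPGES-1 microsomes at 2 μg/mL were pre-incubated 15 min with compound (60 μM to 0.002 μM) in 50 mM potassium phosphate pH 6.8 with 2.5 mM GSH. The reaction was started with 10.8 μM PGH2 and stopped after 1 minute with acidic ferric chloride/citrate. PGE2 was quantified by HTRF; IC50 is the mean of at least 2 runs.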

| SMILES | IC50 |
| --- | --- |
| NS(=O)(=O)c1cc(Cl)ccc1NS(=O)(=O)CCc1ccc(Cl)c(Cl)c1 [Example 202, 5-Chloro-2-(2-(3,4-dichlorophenyl)ethylsulfonamido)benzenesulfonamide] | 2900 nM |
| NS(=O)(=O)c1ccccc1NS(=O)(=O)CCc1ccccc1Cl [Example 76, 2-[2-(2-Chlorophenyl)ethylsulfonylamino]benzenesulfonamide] | 1200 nM |
| NS(=O)(=O)c1cc(-c2ccccc2)ccc1NS(=O)(=O)c1cccc(-c2ccc(Cl)c(Cl)c2)c1 [Example 145, 2-[[3-(3,4-Dichlorophenyl)phenyl]sulfonylamino]-5-phenyl-benzenesulfonamide] | 4100 nM |
| Cc1ccc(NS(=O)(=O)/C=C/c2cccc(C(F)(F)F)c2)c(S(N)(=O)=O)c1 [Example 68, 5-Methyl-2-[[(E)-2-[3-(trifluoromethyl)phenyl]ethenyl]sulfonylamino]-benzenesulfonamide] | 9100 nM |
| NS(=O)(=O)c1ccccc1NS(=O)(=O)c1cccc(-c2ccc(Cl)cc2Cl)c1 [Example 139, 2-[[3-(2,4-Dichlorophenyl)phenyl]sulfonylamino]benzenesulfonamide] | 1800 nM |
| NS(=O)(=O)c1ccc(F)cc1NS(=O)(=O)CCc1ccc(Cl)cc1 [Example 85, 2-[2-(4-Chlorophenyl)ethylsulfonylamino]-4-fluoro-benzenesulfonamide] | 800 nM |
| NS(=O)(=O)c1c(F)cc(F)cc1NS(=O)(=O)c1cccc(Cl)c1Cl [Example 196, 2,3-Dichloro-N-(3,5-difluoro-2-sulfamoylphenyl)benzenesulfonamide] | 1900 nM |
| Cc1ccc(NS(=O)(=O)CCc2ccc(Br)cc2)c(S(N)(=O)=O)c1 [Example 189, 2-(2-(4-Bromophenyl)ethylsulfonamido)-5-methylbenzenesulfonamide] | 1400 nM |
| COc1ncc(-c2cccc(S(=O)(=O)Nc3ccccc3S(N)(=O)=O)c2)cn1 [Example 165, 3-(2-Methoxypyrimidin-5-yl)-N-(2-sulfamoylphenyl)benzenesulfonamide] | 2300 nM |
| N#Cc1ccc(S(N)(=O)=O)c(NS(=O)(=O)CCc2ccc(Cl)c(Cl)c2)c1 [Example 180, 4-Cyano-2-(2-(3,4-dichlorophenyl)ethylsulfonamido)benzenesulfonamide] | 1400 nM |
| Cc1nc(-c2cccc(S(=O)(=O)Nc3ccccc3S(N)(=O)=O)c2)cs1 [Example 191, 3-(2-Methylthiazol-4-yl)-N-(2-sulfamoylphenyl)benzenesulfonamide] | 8300 nM |
| CN1CCOc2cc(S(=O)(=O)Nc3ccccc3S(N)(=O)=O)ccc21 [Example 123, 7-Methyl-N-(2-sulfamoylphenyl)-10-oxa-7-azabicyclo[4.4.0]deca-1,3,5-triene-3-sulfonamide] | 9300 nM |
| NS(=O)(=O)c1ccccc1NS(=O)(=O)CCc1ccc(Br)cc1 [Example 107, 2-[(E)-2-(4-Bromophenyl)ethylsulfonylamino]benzenesulfonamide] | 140 nM |
| NS(=O)(=O)c1ccccc1NS(=O)(=O)CCc1ccc(C2Cc3ccccc3O2)cc1 (centres unmarked) [Example 2, 2-[2-[4-(2,3-Dihydrobenzofuran-2-yl)phenyl]ethylsulfonylamino]benzenesulfonamide] | 270 nM |
| Cc1ccncc1-c1cccc(S(=O)(=O)Nc2ccccc2S(N)(=O)=O)c1 [Example 166, 3-(4-Methylpyridin-3-yl)-N-(2-sulfamoylphenyl)benzenesulfonamide] | 4800 nM |
| NS(=O)(=O)c1cnccc1NS(=O)(=O)CCc1ccc(-c2cc3ccccc3o2)cc1 [Example 204, 4-(2-(4-(Benzofuran-2-yl)phenyl)ethylsulfonamido)pyridine-3-sulfonamide] | 620 nM |
| NS(=O)(=O)c1cc(F)ccc1NS(=O)(=O)/C=C/c1ccc(OC(F)F)cc1 [Example 42, 2-[[(E)-2-[4-(Difluoromethoxy)phenyl]ethenyl]sulfonylamino]-5-fluoro-benzenesulfonamide] | 1600 nM |
| COc1ccccc1/C=C/S(=O)(=O)Nc1cc(F)ccc1S(N)(=O)=O [Example 58, 4-Fluoro-2-[[(E)-2-(2-methoxyphenyl)ethenyl]sulfonylamino]benzenesulfonamide] | 300 nM |
| NS(=O)(=O)c1ccc(Cl)cc1NS(=O)(=O)CCc1ccc(OC(F)F)cc1 [Example 226, 4-Chloro-2-(2-(4-(difluoromethoxy)phenyl)ethylsulfonamido)benzenesulfonamide] | 1300 nM |
| NS(=O)(=O)c1ccccc1NS(=O)(=O)CCc1ccccc1 [Example 74, 2-(Phenethylsulfonylamino)benzenesulfonamide] | 9800 nM |
| COc1ccc(Br)cc1/C=C/S(=O)(=O)Nc1ccc(F)cc1S(N)(=O)=O [Example 27, 2-[[(E)-2-(5-Bromo-2-methoxy-phenyl)ethenyl]sulfonylamino]-5-fluoro-benzenesulfonamide] | 270 nM |
| COc1ncc(-c2cccc(S(=O)(=O)Nc3ccccc3S(N)(=O)=O)c2)cc1Cl [Example 169, 3-(5-Chloro-6-methoxy-pyridin-3-yl)-N-(2-sulfamoylphenyl)benzenesulfonamide] | 22 nM |
| NS(=O)(=O)c1ccccc1NS(=O)(=O)c1cccc(-c2ccc(F)cc2F)c1 [Example 143, 2-[[3-(2,4-Difluorophenyl)phenyl]sulfonylamino]benzenesulfonamide] | 1100 nM |
| C=C(CS(=O)(=O)Nc1ccccc1S(N)(=O)=O)c1ccc(Cl)cc1 [Example 87, 2-[2-(4-Chlorophenyl)prop-2-enylsulfonylamino]benzenesulfonamide] | 2400 nM |

The remaining lines, values ahead:

| IC50 | SMILES |
| --- | --- |
| 44 nM | NS(=O)(=O)c1ccccc1NS(=O)(=O)/C=C/c1ccc(-c2ccco2)cc1 [Example 18, 2-[[(E)-2-[4-(2-Furyl)phenyl]ethenyl]sulfonylamino]benzenesulfonamide] |
| 190 nM | NS(=O)(=O)c1ccccc1NS(=O)(=O)/C=C/c1ccc2ccccc2c1 [Example 84, 2-[[(E)-2-Naphthalen-2-ylethenyl]sulfonylamino]benzenesulfonamide] |
| 5700 nM | N#Cc1ccc(/C=C/S(=O)(=O)Nc2ccc(F)cc2S(N)(=O)=O)cc1 [Example 31, 2-[[(E)-2-(4-Cyanophenyl)ethenyl]sulfonylamino]-5-fluoro-benzenesulfonamide] |
| 7300 nM | NS(=O)(=O)c1ccccc1NS(=O)(=O)c1cccc(-c2ccc(CO)cc2)c1 [Example 172, 2-[[3-[4-(Hydroxymethyl)phenyl]phenyl]sulfonylamino]benzenesulfonamide] |
| 74 nM | NS(=O)(=O)c1c(F)cccc1NS(=O)(=O)/C=C/c1ccc(-c2cc3ccccc3o2)cc1 [Example 6, 2-[[(E)-2-(4-Benzofuran-2-ylphenyl)ethenyl]sulfonylamino]-6-fluoro-benzenesulfonamide] |
| 2500 nM | NS(=O)(=O)c1ccccc1NS(=O)(=O)c1cccc(-c2ccccc2)c1 [Example 129, 3-Phenyl-N-(2-sulfamoylphenyl)benzenesulfonamide] |
| 4600 nM | NS(=O)(=O)c1ccccc1NS(=O)(=O)/C=C/c1ccccc1C(F)(F)F [Example 104, 2-[[(E)-2-[2-(Trifluoromethyl)phenyl]ethenyl]sulfonylamino]benzenesulfonamide] |
| 1600 nM | NS(=O)(=O)c1cc(F)ccc1NS(=O)(=O)/C=C/c1ccc(C(F)(F)F)cc1 [Example 101, 5-Fluoro-2-[[(E)-2-[4-(trifluoromethyl)phenyl]ethenyl]sulfonylamino]-benzenesulfonamide] |
| 130 nM | NS(=O)(=O)c1c(F)cccc1NS(=O)(=O)/C=C/c1ccc(-c2ccccc2)cc1 [Example 50, 2-Fluoro-6-[[(E)-2-(4-phenylphenyl)ethenyl]sulfonylamino]benzenesulfonamide] |
| 290 nM | NS(=O)(=O)c1ccccc1NS(=O)(=O)/C=C/c1ccc(Cl)cc1 [Example 73, 2-[[(E)-2-(4-Chlorophenyl)ethenyl]sulfonylamino]benzenesulfonamide] |
| 3200 nM | NS(=O)(=O)c1ccccc1NS(=O)(=O)/C=C/c1cccc(C(F)(F)F)c1 [Example 192, (E)-2-(2-(3-(Trifluoromethyl)phenyl)vinylsulfonamido)benzenesulfonamide] |
| 5900 nM | N#Cc1ccc(/C=C/S(=O)(=O)Nc2cc(F)ccc2S(N)(=O)=O)cc1 [Example 30, 2-[[(E)-2-(4-Cyanophenyl)ethenyl]sulfonylamino]-4-fluoro-benzenesulfonamide] |
| 700 nM | NS(=O)(=O)c1ccccc1NS(=O)(=O)/C=C/c1ccc(OC(F)F)cc1 [Example 20, 2-[[(E)-2-[4-(Difluoromethoxy)phenyl]ethenyl]sulfonylamino]benzenesulfonamide] |
| 430 nM | NS(=O)(=O)c1cc(F)ccc1NS(=O)(=O)/C=C/c1ccc(Cl)cc1 [Example 22, 2-[[(E)-2-(4-Chlorophenyl)ethenyl]sulfonylamino]-5-fluoro-benzenesulfonamide] |
| 170 nM | NS(=O)(=O)c1cc(F)ccc1NS(=O)(=O)/C=C/c1ccc(-c2ccco2)cc1 [Example 35, 5-Fluoro-2-[[(E)-2-[4-(2-furyl)phenyl]ethenyl]sulfonylamino]benzenesulfonamide] |
| 1400 nM | CSc1ccc(/C=C/S(=O)(=O)Nc2cccc(F)c2S(N)(=O)=O)cc1 [Example 39, 2-Fluoro-6-[[(E)-2-(4-methylsulfanylphenyl)ethenyl]sulfonylamino]-benzenesulfonamide] |
| 130 nM | NS(=O)(=O)c1ccccc1NS(=O)(=O)CCc1ccc(-c2cc3ccccc3o2)cc1 [Example 1, 2-[2-(4-Benzofuran-2-ylphenyl)ethylsulfonylamino]benzenesulfonamide] |
